In US20140275509A1, “MULTIFUNCTIONALIZED MATERIALS” (Nanoimmunotech SRL, priority 2011, published 2014):

System: Human tumor cells Hmy-2 (HLA-DR class II positive B cell line)
Assay: Recognition, internalization, labeling and drug release
Format: cell-based
Conditions: drug transported into the cell by cyclodextrin on the BH1/fluorophore/penetrating peptide gold nanoparticles, 1:1:1:1 molar ratio
Description: The antibody described above, BH1 functionalized with the PNA-B sequence, has been conjugated to 13 nm gold nanoparticles previously functionalized with the PNA-A sequence by means of the complementary strand hybridization technique. […] On the other hand and due to the possibility of producing a multifunctionalization by using the presented technology, molecules of a cell-penetrating peptide with the DNA-B sequence could further be bound to the nanostructures by hybridization, as occurred with BH1 to the nanoparticles. Furthermore and continuing with the possibility of producing multifunctionalization by using the presented technology, fluorescent labeling molecules functionalized with the DNA-B sequence could be bound to the previous nanostructures by hybridization, as occurred with the BH1 to the nanoparticles. […] To conclude and continuing with multifunctionalization allowed by the presented technology, molecules of cyclodextrin functionalized with the DNA-B sequence could be bound to the previous nanostructures by hybridization as occurred with BH1, fluorophore and penetrating peptide to the nanoparticles, using a 1:1:1:1 molar ratio, respectively.

## CC1(C)CCC2=C(O1)c1ccccc1C(=O)C2=O [β-Lapachone]
  cell death: selectively induced cell death
